Test results from patent US20230348493A1, “COMPOUND FOR ADJUSTING ACTIVITY OF NMDA RECEPTOR, AND PHARMACEUTICAL COMPOSITION AND USE THEREOF” (BEIJING GREATWAY PHARMACEUTICAL TECHNOLOGY CO., LTD., priority 2020, published 2023).
Where two headings read alike, the source gives them in different places.

Key:
NMDA receptor [1] = biological target: T1, NMDA receptor (Rattus norvegicus, UniProt P35439); test: NMDA receptor agonistic properties in rat crude synaptosomal proteins (maximum [3H]-MK-801 binding vs 1 mM glycine); type: biochemical; settings: maximum [3H]-MK-801 binding % relative to 1 mM glycine; 50 μM glutamic acid
T1 construct: After the rats were decapitated, the prefrontal cortex and hippocampus were rapidly separated on ice; from tissue; host or cells: SD male rat prefrontal cortex and hippocampus, crude synaptosomes
Protocol: (§1) After the rats were decapitated, the prefrontal cortex and hippocampus were rapidly separated on ice and weighed, 10 volumes of 50 mM Tris-HCl buffer (50 mM Tris-HCl, 5 mM MgCl2·6H2O, 1 mM EDTA, 0.5% (W/V) BSA, 1 mM PMSF, 0.32 M sucrose, pH 7.4) was added, and the mixture was homogenized for five times at 1500 revolutions/min with 30 s each time. A homogenate was centrifuged for 10 min at 1000×g, and a supernatant was taken and centrifuged for 10 min at 40,000×g, the precipitates were collected, re-suspended with volumes of Tris-HCl buffer, incubated at 37° C. for 10 min, and centrifuged for 10 min at 40,000×g, finally the precipitates were re-suspended with the above buffer, aliquoted and stored at −80° C. for later use.
(3) Detection of Influence of Tested Medicines on NMDA Receptor Agonistic Properties in Rat Crude Synaptosomal Proteins
100 μg of rat crude synaptosomal proteins was added to all tubes respectively. 50 μl of 5,7-dichlorokynurenic acid was added to a non-specific binding tube to achieve a final concentration of 10 μM. All tubes were preloaded with 50 μM of glutamic acid, and the materials were reacted for 15 min in advance. 20 μL of control drug at corresponding concentration was added to the test tube, and then reacted for 15 min. 1 mM glycine was added to the maximum reaction tube. A volume of 30 μl of labeled ligand [^3H]-MK-801 was successively added to all tubes to achieve a final concentration of 10 nM, and reacted for 15 min. All reaction tubes were supplemented to a volume of 500 μl with 50 mM Tris-HCl buffer (50 mM Tris-HCl, 5 mM MgCl2·6H2O, 1 mM EDTA, 0.5% (WN) BSA, 0.1% NaN3, pH 7.4). A reaction was carried out at 37° C. for 15 min. A type-49 glass fiber filter membrane was prepared and a sample was applied at the same time. The filter membrane was placed in a multi-head cell collector, and the reaction system was subjected to suction filtration under negative pressure and washed with an ice-cold 50 mM Tris-HCl buffer, 10 ml each time, for a total of 5 times. After suction drying, 1 ml of scintillation liquid was added to the filter membrane, the filter membrane was placed on the shaker for shaking for 1.5 h and then placed in the liquid scintillation counter on the next day to determine the radioactive intensity.
In an agonistic experiment, maximum [^3H]-MK-801 binding %=((tested compounds cpm−5,7 dichlorokynurenic acid cpm)/(1 mM glycine cpm−5,7 dichlorokynurenic acid cpm))×100%.

NMDA receptor [2] = biological target: T1, NMDA receptor; test: Inhibition of [3H]-MK-801 binding to rat crude synaptosomes (receptor ligand binding assay)
Protocol: The affinity of the tested compounds on NMDA receptor was researched by receptor ligand binding assays.
Ten SD male rats of SPF grade were ordered and acclimated for 7 days for future use.
as §1
(2) Detection of Inhibitory Function of Tested Medicines on Binding of Crude Synaptosomes in Rats to [^3H]-MK-801
50 μg of rat crude synaptosomal proteins was added to all tubes respectively. A volume of 50 μl of MK-801 (dizocilpine) was added to a non-specific binding tube to achieve a final concentration of 100 μM, and the materials were reacted for 15 min in advance. 20 μL of control drug at corresponding concentration was added to the test tube for reaction for 15 min. A volume of 30 μl of labeled ligand [^3H]-MK-801 was successively added to all tubes to achieve a final concentration of 10 nM. All reaction tubes were supplemented to a volume of 200 μl with 50 mM Tris-HCl buffer (50 mM Tris-HCl, 5 mM MgCl2·6H2O, 1 mM EDTA, 0.5% (WN) BSA, 0.1% NaN3, pH 7.4). A reaction was carried out at 37° C. for 10 min. A type-49 glass fiber filter membrane was prepared and a sample was applied at the same time. The filter membrane was placed in a multi-head cell collector, and a reaction system was subjected to suction filtration under negative pressure and washed with an ice-cold 50 mM Tris-HCl buffer, 10 ml each time, for a total of 5 times. After suction drying, 1 ml of scintillation liquid was added to the filter membrane, the filter membrane was placed on a shaker for shaking for 1.5 h and then placed in a liquid scintillation counter on the next day to determine the radioactive intensity.
GraphPad5.0 software was used to analyze the data, and the percentage of competitive inhibition was calculated through nonlinear fitting, wherein:
Percentage of competitive inhibition %=((total binding tube cpm−compound cpm)/(total binding tube cpm−non-specific binding tube cpm))×100%;
Specific binding amount=total binding amount−non-specific binding amount, wherein each binding site was determined by double compound tubes.

[3] = affinity on NMDA, [3H]-MK-801 10 nM, rat prefrontal cortex and hippocampus crude synaptosomes, read-out: IC50

| Structure (SMILES) | Maximum agonistic efficacy (%) (NMDA receptor [1]) | IC50 (NMDA receptor [2]; [3]) [nM] | IC50 (NMDA receptor [2]) [nM] |
| --- | --- | --- | --- |
| CC(C)(C)OC(=O)N1CC2(C1)NCCS2 [A-002] | 45 | 0.33 | – |
| CC(C)(C)OC(=O)N1CCC2(C1)NCCS2 (stereo not drawn) [A-016] | 56 | 0.35 | – |
| CC(C)(C)OC(=O)N1CCC2(CC1)NCCS2 [A-030] | 39 | 0.35 | – |
| CC(=O)N1CCC2(CC1)NCCS2 [A-031] | 52 | 0.35 | – |
| Cl.N[C@@H](CO)C(=O)N1CCC2(CC1)NCCS2 [A-035] | 19 | 0.88 | – |
| CC(C)[C@H](N)C(=O)N1CCC2(CC1)NCCS2.Cl [A-036] | 28 | 0.89 | – |
| CC(C)(C)OC(=O)N1CCCC2(C1)NCCS2 (stereo not drawn) [A-044] | 28 | 0.66 | – |
| C[C@@H](O)[C@H](N)C(=O)N1CCCC2(C1)NCCS2.Cl (stereo partly drawn) [A-048] | 38 | 0.55 | – |
| CC(=O)N1CC2(C1)SCCN2C(C)=O [A-059] | 33 | 0.75 | – |
| CC(=O)N1CCSC12CN(C(=O)[C@@H](N)C(C)C)C2.Cl [A-068] | 48 | 1.3 | – |
| CC(=O)N1CCSC12CCN(C(=O)[C@@H](N)[C@@H](C)O)C2.Cl (stereo partly drawn) [A-074] | 38 | 0.89 | – |
| CC(=O)N1CCSC12CCN(C(=O)OC(C)(C)C)CC2 [A-078] | 56 | 1.59 | – |
| CC(=O)N1CCC2(CC1)SCCN2C(C)=O [A-079] | 41 | 1.25 | – |
| CC(=O)N1CCSC12CCCN(C(=O)[C@@H](N)[C@@H](C)O)C2.Cl (stereo partly drawn) [A-090] | 36 | 0.45 | – |
| CC(C)C(=O)N1CCSC12CNC2.Cl [A-093] | 65 | – | 0.48 |
| CC(=O)N1CCC2(CC1)SCCN2C(=O)C(C)C [A-111] | 38 | 1.58 | – |
| CC(C)C(=O)N1CCSC12CCN(C(=O)[C@@H](N)[C@@H](C)O)CC2.Cl [A-114] | 35 | 0.89 | – |
| CC(=O)N1CCCC2(C1)SCCN2C(=O)C(C)C (stereo not drawn) [A-119] | 35 | 1.89 | – |
| CC(C)C(=O)N1CCSC12CCCN(C(=O)[C@@H](N)[C@@H](C)O)C2.Cl (stereo partly drawn) [A-122] | 38 | 1.65 | – |
| C[C@@H](O)[C@H](N)C(=O)N1CC2(C1)SCCN2C(=O)C(C)(C)C.Cl [A-130] | 43 | 0.48 | – |
| CC(C)CN1CCSC12CN(C(=O)[C@@H](N)[C@@H](C)O)C2.Cl [A-162] | 38 | 0.45 | – |
| Cl.N[C@@H](CO)C(=O)N1CC2(C1)SCCN2Cc1ccccc1 [A-195] | 46 | 0.43 | – |
| C[C@@H](O)[C@H](N)C(=O)N1CC2(C1)SCCN2C.Cl [A-226] | 45 | 0.33 | – |
| C[C@@H](O)[C@H](N)C(=O)N1CCC2(C1)SCCN2C.Cl (stereo partly drawn) [A-234] | 75 | 1.58 | – |

| Structure (SMILES) | Maximum agonistic efficacy (%) (NMDA receptor [1]) | IC50 (NMDA receptor [2]; [3]) [nM] | IC50 (NMDA receptor [2]) [nM] |
| --- | --- | --- | --- |
| CC(C)C(=O)N1CC2(C1)N[C@H](C(N)=O)CS2 [A-256] | 28 | 0.89 | – |
| C[C@@H](O)[C@H](N)C(=O)N1CCC2(C1)N[C@H](C(N)=O)CS2.Cl (stereo partly drawn) [A-266] | 45 | 3.2 | – |
| CC(C)C(=O)N1CCC2(CC1)N[C@H](C(N)=O)CS2 [A-272] | 19 | 0.54 | – |
| Cl.NC(=O)[C@@H]1CSC2(CCN(C(=O)[C@@H](N)CO)CC2)N1 [A-275] | 12 | 0.35 | – |
| CC(C)[C@H](N)C(=O)N1CCC2(CC1)N[C@H](C(N)=O)CS2.Cl [A-276] | 28 | 0.25 | – |
| C[C@@H](O)[C@H](N)C(=O)N1CCCC2(C1)N[C@H](C(N)=O)CS2.Cl (stereo partly drawn) [A-282] | 35 | 0.32 | – |
| COC(=O)[C@@H]1CSC2(CCN(C(=O)[C@@H](N)[C@@H](C)O)CC2)N1.Cl [A-291] | 13 | 0.88 | – |
| Cl.N#C[C@@H]1CSC2(CN(C(=O)[C@@H](N)CO)C2)N1 [A-303] | 35 | 0.24 | – |
| CC(C)[C@H](N)C(=O)N1CCSC12CNC2.Cl [A-329] | 26 | – | 0.73 |
| CC(C)[C@H](N)C(=O)N1CCSC12CN(C(=O)[C@@H](N)[C@@H](C)O)C2.Cl [A-331] | 31 | 0.59 | – |
| CC(=O)N1CC2(C1)N[C@H](C(=O)N[C@@H](CO)C(N)=O)CS2 [A-333] | 19 | 0.41 | – |
| NC(=O)C(CO)NC(=O)C1CSC2(CN(C(=O)C(N)CO)C2)N1 (stereo not drawn) [A-334] | 34 | 0.38 | – |
| CC(=O)N1[C@H](C(N)=O)CSC12CN(C(=O)[C@@H](N)C(C)O)C2.Cl (stereo partly drawn) [A-335] | 42 | 0.48 | – |
| CC(=O)N1CC2(C1)SCCN2C(=O)[C@@H](N)CC(N)=O.Cl [A-342] | 32 | 0.56 | – |
| C[C@@H](O)[C@H](N)C(=O)N1CCC2(C1)SCCN2C(=O)[C@@H](N)[C@@H](C)O.Cl (stereo partly drawn) [A-353] | 53 | 0.48 | – |
| CC(C)C(=O)N1CCC2(CC1)SCCN2C(=O)[C@@H](N)[C@@H](C)O.Cl [A-358] | 78 | 0.86 | – |
| C[C@@H](O)[C@H](N)C(=O)N1CCCC2(C1)SCCN2C(=O)[C@@H](N)[C@@H](C)O.Cl (stereo partly drawn) [A-367] | 39 | 0.29 | – |
| C[C@@H](O)[C@H](NC(=O)[C@@H]1CSC2(CNC2)N1)C(N)=O.Cl [A-370] | 46 | – | 0.36 |
| C[C@H](NC(=O)[C@@H]1CSC2(CN(C(=O)[C@@H](N)[C@@H](C)O)C2)N1)C(N)=O.Cl [A-378] | 49 | 1.66 | – |
| CC(=O)N1CCC2(C1)N[C@H](C(=O)N[C@H](C(N)=O)[C@@H](C)O)CS2.Cl (stereo partly drawn) [A-384] | 39 | 0.42 | – |
| C[C@@H](O)[C@H](NC(=O)[C@@H]1CSC2(CCNCC2)N1)C(N)=O.Cl [A-390] | 55 | 0.39 | – |
| C[C@@H](O)[C@H](N)C(=O)N1CCC2(CC1)N[C@H](C(=O)N[C@H](C(N)=O)[C@@H](C)O)CS2.Cl [A-394] | 63 | 0.79 | – |
| C[C@@H](O)[C@H](N)C(=O)N1CCCC2(C1)N[C@H](C(=O)N[C@H](C(N)=O)[C@@H](C)O)CS2.Cl (stereo partly drawn) [A-401] | 75 | 0.44 | – |
| C[C@@H](O)[C@H](N)C(=O)N1CC2(C1)N[C@H](C(=O)N1CCOCC1)CS2.Cl [A-409] | 36 | 0.56 | – |
